ChEMBL document CHEMBL4393686, “InCl3 mediated heteroarylation of indoles and their derivatization via CH activation strategy: Discovery of 2-(1H-indol-3-yl)-quinoxaline derivatives as a new class of PDE4B selective inhibitors for arthritis and/or multiple sclerosis” (Eur J Med Chem, 2019)
Active and inactive are the calls of the source. The rule behind the calls is not given here.

What was measured:
[1] = target: T1, 3',5'-cyclic-AMP phosphodiesterase 4B (Homo sapiens, UniProt Q07343); test: Inhibition of recombinant His-tagged PDE4B (unknown origin) expressed in Sf9 cells using cAMP as substrate preincubated for 15 mins followed by substrate addition and incubated for 1 hr by PDELight HTS cAMP phosphodiesterase Kit based luminometry
T1 sequence (Q07343 whole entry): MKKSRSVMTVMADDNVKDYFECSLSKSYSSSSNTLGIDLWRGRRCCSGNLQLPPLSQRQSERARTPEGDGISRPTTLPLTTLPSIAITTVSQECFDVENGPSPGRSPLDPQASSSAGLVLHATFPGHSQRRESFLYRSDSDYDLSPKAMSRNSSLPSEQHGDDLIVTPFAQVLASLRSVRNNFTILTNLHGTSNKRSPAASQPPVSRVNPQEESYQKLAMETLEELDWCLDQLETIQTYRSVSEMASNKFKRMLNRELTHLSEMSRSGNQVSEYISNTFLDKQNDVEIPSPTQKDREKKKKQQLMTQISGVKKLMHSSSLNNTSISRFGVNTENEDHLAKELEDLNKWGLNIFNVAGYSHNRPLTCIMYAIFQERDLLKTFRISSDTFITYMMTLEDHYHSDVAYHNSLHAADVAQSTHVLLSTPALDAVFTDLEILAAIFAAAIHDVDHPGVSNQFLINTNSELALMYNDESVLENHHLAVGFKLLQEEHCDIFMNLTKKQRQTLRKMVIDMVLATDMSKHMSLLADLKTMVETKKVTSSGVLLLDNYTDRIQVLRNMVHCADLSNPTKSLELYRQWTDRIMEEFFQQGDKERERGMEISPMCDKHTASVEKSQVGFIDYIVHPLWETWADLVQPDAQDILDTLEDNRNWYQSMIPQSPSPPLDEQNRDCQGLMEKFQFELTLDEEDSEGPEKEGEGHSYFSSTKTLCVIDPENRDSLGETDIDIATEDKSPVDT

[2] = Selectivity for recombinant His-tagged PDE4B (unknown origin) expressed in Sf9 cells over PDE4D2 (unknown origin); conditions: Homo sapiens
[3] = target: Dual specificity calcium/calmodulin-dependent 3',5'-cyclic nucleotide phosphodiesterase 1B (Homo sapiens) (UniProt Q01064); test: Inhibition of recombinant N-terminal GST tagged full length human PDE1B expressed in Sf9 cells using FAM-cAMP as substrate at 1xIC50 incubated for 60 mins by fluorescence plate reader analysis
Dual specificity calcium/calmodulin-dependent 3',5'-cyclic nucleotide phosphodiesterase 1B (Homo sapiens), sequence (Q01064 whole entry, the tested form may be a part): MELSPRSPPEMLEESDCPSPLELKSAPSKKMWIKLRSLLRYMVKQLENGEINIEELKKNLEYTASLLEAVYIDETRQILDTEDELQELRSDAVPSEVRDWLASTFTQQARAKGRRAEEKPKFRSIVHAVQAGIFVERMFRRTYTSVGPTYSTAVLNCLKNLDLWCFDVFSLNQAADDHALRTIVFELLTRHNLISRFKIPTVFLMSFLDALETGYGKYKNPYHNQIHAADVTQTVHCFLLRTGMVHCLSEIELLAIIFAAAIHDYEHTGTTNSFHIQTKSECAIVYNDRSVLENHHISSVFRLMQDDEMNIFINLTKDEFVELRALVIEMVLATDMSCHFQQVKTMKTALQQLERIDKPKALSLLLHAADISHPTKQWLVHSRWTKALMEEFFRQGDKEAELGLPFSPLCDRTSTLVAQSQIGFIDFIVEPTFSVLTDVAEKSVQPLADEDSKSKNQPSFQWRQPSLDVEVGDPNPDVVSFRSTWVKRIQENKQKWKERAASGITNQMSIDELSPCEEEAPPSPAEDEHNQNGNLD

[4] = target: Dual specificity calcium/calmodulin-dependent 3',5'-cyclic nucleotide phosphodiesterase 1A (Homo sapiens) (UniProt P54750); test: Inhibition of recombinant N-terminal GST-tagged full-length human PDE1A1 expressed in Sf9 cells using FAM-cAMP as substrate at 0.1xIC50 incubated for 60 mins by fluorescence plate reader analysis
Dual specificity calcium/calmodulin-dependent 3',5'-cyclic nucleotide phosphodiesterase 1A (Homo sapiens), sequence (P54750 whole entry, the tested form may be a part): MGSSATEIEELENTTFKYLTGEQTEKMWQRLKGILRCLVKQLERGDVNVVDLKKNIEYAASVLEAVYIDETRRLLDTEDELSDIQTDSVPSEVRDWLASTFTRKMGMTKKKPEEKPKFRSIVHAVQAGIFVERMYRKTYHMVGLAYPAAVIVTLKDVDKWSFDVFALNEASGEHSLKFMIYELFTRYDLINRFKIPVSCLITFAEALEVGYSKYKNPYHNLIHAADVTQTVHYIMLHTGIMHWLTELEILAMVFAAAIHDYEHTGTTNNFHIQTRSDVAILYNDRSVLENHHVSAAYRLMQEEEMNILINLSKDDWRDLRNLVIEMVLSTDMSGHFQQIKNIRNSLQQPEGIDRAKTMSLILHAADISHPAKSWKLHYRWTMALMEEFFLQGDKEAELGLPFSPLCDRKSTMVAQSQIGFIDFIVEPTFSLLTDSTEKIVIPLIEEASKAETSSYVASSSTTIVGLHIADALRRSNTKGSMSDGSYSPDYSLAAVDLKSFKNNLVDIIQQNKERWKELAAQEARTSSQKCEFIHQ

[5] = target: Dual specificity calcium/calmodulin-dependent 3',5'-cyclic nucleotide phosphodiesterase 1A (Homo sapiens) (UniProt P54750); test: Inhibition of recombinant N-terminal GST-tagged full-length human PDE1A1 expressed in Sf9 cells using FAM-cAMP as substrate at 1xIC50 incubated for 60 mins by fluorescence plate reader analysis
[6] = target: Dual specificity calcium/calmodulin-dependent 3',5'-cyclic nucleotide phosphodiesterase 1C (Homo sapiens) (UniProt Q14123); test: Inhibition of recombinant N-terminal GST tagged human PDE1C (2 to 634 aa) expressed in Sf9 cells at 10xIC50 using FAM-cAMP as substrate incubated for 60 mins by fluorescence plate reader analysis
Dual specificity calcium/calmodulin-dependent 3',5'-cyclic nucleotide phosphodiesterase 1C (Homo sapiens), sequence (Q14123 whole entry, the tested form may be a part): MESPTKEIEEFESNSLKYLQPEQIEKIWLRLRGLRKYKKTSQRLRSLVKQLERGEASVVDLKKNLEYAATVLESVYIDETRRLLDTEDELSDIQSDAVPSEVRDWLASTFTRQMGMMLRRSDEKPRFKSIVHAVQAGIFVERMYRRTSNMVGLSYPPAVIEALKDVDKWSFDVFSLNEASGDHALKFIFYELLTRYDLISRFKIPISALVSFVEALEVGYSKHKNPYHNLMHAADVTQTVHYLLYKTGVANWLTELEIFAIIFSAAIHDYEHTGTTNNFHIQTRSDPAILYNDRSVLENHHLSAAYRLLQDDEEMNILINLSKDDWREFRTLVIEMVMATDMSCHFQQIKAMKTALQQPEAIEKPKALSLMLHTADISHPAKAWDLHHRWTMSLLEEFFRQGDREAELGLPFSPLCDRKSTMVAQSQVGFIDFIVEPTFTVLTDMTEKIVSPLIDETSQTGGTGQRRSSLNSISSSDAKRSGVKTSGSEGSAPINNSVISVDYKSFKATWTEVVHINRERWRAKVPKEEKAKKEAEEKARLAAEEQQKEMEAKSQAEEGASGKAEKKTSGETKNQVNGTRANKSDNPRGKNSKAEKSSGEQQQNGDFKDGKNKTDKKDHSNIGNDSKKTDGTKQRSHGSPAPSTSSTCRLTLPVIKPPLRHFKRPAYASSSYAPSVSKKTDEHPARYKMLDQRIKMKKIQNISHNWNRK

[7] = target: Dual specificity calcium/calmodulin-dependent 3',5'-cyclic nucleotide phosphodiesterase 1B (Homo sapiens) (UniProt Q01064); test: Inhibition of recombinant N-terminal GST tagged full length human PDE1B expressed in Sf9 cells using FAM-cAMP as substrate at 10xIC50 incubated for 60 mins by fluorescence plate reader analysis
[8] = target: Dual specificity calcium/calmodulin-dependent 3',5'-cyclic nucleotide phosphodiesterase 1B (Homo sapiens) (UniProt Q01064); test: Inhibition of recombinant N-terminal GST tagged full length human PDE1B expressed in Sf9 cells using FAM-cAMP as substrate at 0.1xIC50 incubated for 60 mins by fluorescence plate reader analysis
[9] = target: Dual specificity calcium/calmodulin-dependent 3',5'-cyclic nucleotide phosphodiesterase 1C (Homo sapiens) (UniProt Q14123); test: Inhibition of recombinant N-terminal GST tagged human PDE1C (2 to 634 aa) expressed in Sf9 cells at 1xIC50 using FAM-cAMP as substrate incubated for 60 mins by fluorescence plate reader analysis
[10] = target: Dual specificity calcium/calmodulin-dependent 3',5'-cyclic nucleotide phosphodiesterase 1C (Homo sapiens) (UniProt Q14123); test: Inhibition of recombinant N-terminal GST tagged human PDE1C (2 to 634 aa) expressed in Sf9 cells at 0.1xIC50 using FAM-cAMP as substrate incubated for 60 mins by fluorescence plate reader analysis
[11] = target: Dual specificity calcium/calmodulin-dependent 3',5'-cyclic nucleotide phosphodiesterase 1A (Homo sapiens) (UniProt P54750); test: Inhibition of recombinant N-terminal GST-tagged full-length human PDE1A1 expressed in Sf9 cells using FAM-cAMP as substrate at 10xIC50 incubated for 60 mins by fluorescence plate reader analysis
[12] = target: 3',5'-cyclic-AMP phosphodiesterase 4A (Homo sapiens) (UniProt P27815); test: Inhibition of recombinant N-terminal GST tagged human PDE4A4B (2-end aa) expressed in Sf9 cells using FAM-cAMP as substrate at 1xIC50 incubated for 60 mins by fluorescence plate reader analysis
3',5'-cyclic-AMP phosphodiesterase 4A (Homo sapiens), sequence (P27815 whole entry): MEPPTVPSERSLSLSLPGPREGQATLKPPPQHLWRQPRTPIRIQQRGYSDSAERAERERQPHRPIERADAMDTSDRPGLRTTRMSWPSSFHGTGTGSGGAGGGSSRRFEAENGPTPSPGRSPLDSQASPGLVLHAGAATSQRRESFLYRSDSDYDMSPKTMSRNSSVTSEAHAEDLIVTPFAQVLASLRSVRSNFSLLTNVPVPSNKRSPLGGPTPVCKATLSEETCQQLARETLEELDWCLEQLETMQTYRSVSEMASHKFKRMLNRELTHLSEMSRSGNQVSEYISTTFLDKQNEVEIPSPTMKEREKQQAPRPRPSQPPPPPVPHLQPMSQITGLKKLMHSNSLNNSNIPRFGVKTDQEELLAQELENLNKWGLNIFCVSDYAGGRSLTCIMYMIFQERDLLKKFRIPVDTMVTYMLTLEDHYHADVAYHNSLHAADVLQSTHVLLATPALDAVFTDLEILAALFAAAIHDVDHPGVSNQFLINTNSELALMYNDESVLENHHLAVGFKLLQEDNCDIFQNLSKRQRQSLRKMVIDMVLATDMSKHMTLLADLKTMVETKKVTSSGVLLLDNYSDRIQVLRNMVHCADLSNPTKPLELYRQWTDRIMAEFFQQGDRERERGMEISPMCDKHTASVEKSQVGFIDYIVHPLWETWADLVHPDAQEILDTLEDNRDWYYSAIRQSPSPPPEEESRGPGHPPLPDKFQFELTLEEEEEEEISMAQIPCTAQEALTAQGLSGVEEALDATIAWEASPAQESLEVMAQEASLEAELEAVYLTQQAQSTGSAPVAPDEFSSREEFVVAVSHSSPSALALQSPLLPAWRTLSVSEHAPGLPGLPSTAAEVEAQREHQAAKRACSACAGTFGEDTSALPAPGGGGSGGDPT

[13] = target: 3',5'-cyclic-AMP phosphodiesterase 4A (Homo sapiens) (UniProt P27815); test: Inhibition of recombinant N-terminal GST tagged human PDE4A4B (2-end aa) expressed in Sf9 cells using FAM-cAMP as substrate at 0.1xIC50 incubated for 60 mins by fluorescence plate reader analysis
[14] = Inhibition of recombinant N-terminal GST-tagged full length human PDE4A1A expressed in Sf9 cells using cAMP as substrate at 10xIC50 incubated for 60 mins by fluorescence plate reader analysis
[15] = target: 3',5'-cyclic-AMP phosphodiesterase 4A (Homo sapiens) (UniProt P27815); test: Inhibition of recombinant N-terminal GST tagged human PDE4A4B (2-end aa) expressed in Sf9 cells using FAM-cAMP as substrate at 10xIC50 incubated for 60 mins by fluorescence plate reader analysis
[16] = Inhibition of recombinant N-terminal GST-tagged full length human PDE4A1A expressed in Sf9 cells using cAMP as substrate at 1xIC50 incubated for 60 mins by fluorescence plate reader analysis
[17] = Inhibition of recombinant N-terminal GST-tagged full length human PDE4A1A expressed in Sf9 cells using cAMP as substrate at 0.1xIC50 incubated for 60 mins by fluorescence plate reader analysis
[18] = target: T1, 3',5'-cyclic-AMP phosphodiesterase 4B; test: Inhibition of human recombinant His-tagged PDE4B expressed in Sf9 cells using cAMP as substrate at 10 uM preincubated with enzyme for 15 mins followed by substrate addition and incubated for 1 hr by PDELight HTS cAMP phosphodiesterase Kit based luminometry relative to control
[19] = target: T1, 3',5'-cyclic-AMP phosphodiesterase 4B; test: Inhibition of recombinant His-tagged human PDE4B expressed in Sf9 cells using cAMP as substrate preincubated with enzyme for 15 mins followed by substrate addition and incubated for 1 hr by PDELight HTS cAMP phosphodiesterase Kit based luminometry
Danio rerio = test: Anti-sclerotic activity in MOG/CFA-induced zebra fish EAE model assessed as reduction in lesion score at 1 mg/kg, po measured for 7 days; assay type: functional, organism-based
[20] = target: 3',5'-cyclic-AMP phosphodiesterase 4D (Homo sapiens, UniProt Q08499); test: Inhibition of PDE4D2 (unknown origin) using cAMP as substrate preincubated with enzyme for 15 mins followed by substrate addition and incubated for 1 hr by PDELight HTS cAMP phosphodiesterase Kit based luminometry
Homo sapiens [21] = species: Homo sapiens; test: Selectivity index, ratio of IC50 for PDE4D2 (unknown origin) to IC50 for recombinant His-tagged human PDE4B expressed in sf9 cells using cAMP as substrate by PDELight HTS cAMP phosphodiesterase Kit based luminometry
[22] = target: cGMP-inhibited 3',5'-cyclic phosphodiesterase 3B (Homo sapiens) (UniProt Q13370); test: Inhibition of recombinant N-terminal GST-tagged human PDE3B (592-end aa) expressed in Sf9 cells using FAM-cAMP as substrate at 1xIC50 incubated for 60 mins by fluorescence plate reader analysis
cGMP-inhibited 3',5'-cyclic phosphodiesterase 3B (Homo sapiens), sequence (Q13370 whole entry, looked up): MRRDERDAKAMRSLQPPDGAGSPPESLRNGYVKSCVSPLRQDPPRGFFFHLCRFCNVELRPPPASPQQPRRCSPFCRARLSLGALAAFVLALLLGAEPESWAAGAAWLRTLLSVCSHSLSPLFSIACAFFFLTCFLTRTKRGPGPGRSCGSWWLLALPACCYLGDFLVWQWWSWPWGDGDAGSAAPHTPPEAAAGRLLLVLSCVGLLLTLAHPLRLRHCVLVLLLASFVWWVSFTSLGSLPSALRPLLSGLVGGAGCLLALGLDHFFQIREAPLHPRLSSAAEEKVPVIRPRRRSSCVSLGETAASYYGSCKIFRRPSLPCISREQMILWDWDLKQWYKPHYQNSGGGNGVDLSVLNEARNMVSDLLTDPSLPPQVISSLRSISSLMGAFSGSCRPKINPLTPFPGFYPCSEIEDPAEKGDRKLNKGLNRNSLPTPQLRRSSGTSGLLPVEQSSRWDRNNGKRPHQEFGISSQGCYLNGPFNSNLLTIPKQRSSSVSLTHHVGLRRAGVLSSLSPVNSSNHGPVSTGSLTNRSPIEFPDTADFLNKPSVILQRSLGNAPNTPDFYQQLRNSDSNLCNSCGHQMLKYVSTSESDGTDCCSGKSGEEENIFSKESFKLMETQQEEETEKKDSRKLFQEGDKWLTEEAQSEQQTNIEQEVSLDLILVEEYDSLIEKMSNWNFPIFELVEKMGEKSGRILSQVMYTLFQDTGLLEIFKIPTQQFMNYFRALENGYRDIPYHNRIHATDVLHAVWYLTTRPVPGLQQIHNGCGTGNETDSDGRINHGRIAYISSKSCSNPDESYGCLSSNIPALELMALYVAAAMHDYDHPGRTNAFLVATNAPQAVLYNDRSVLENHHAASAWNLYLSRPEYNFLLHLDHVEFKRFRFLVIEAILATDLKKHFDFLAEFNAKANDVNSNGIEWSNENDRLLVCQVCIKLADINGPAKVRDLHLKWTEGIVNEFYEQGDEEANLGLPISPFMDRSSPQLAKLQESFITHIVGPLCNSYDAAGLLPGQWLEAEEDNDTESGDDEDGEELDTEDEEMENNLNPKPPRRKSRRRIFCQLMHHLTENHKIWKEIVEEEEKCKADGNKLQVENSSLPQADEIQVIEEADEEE

[23] = target: cGMP-inhibited 3',5'-cyclic phosphodiesterase 3B (Homo sapiens) (UniProt Q13370); test: Inhibition of recombinant N-terminal GST-tagged human PDE3B (592-end aa) expressed in Sf9 cells using FAM-cAMP as substrate at 10xIC50 incubated for 60 mins by fluorescence plate reader analysis
[24] = target: cGMP-inhibited 3',5'-cyclic phosphodiesterase 3A (Homo sapiens) (UniProt Q14432); test: Inhibition of recombinant PDE3A (unknown origin) using FAM-cAMP as substrate at 10xIC50 incubated for 60 mins by fluorescence plate reader analysis
[25] = target: cGMP-inhibited 3',5'-cyclic phosphodiesterase 3A (Homo sapiens) (UniProt Q14432); test: Inhibition of recombinant PDE3A (unknown origin) using FAM-cAMP as substrate at 0.1xIC50 incubated for 60 mins by fluorescence plate reader analysis
[26] = target: cGMP-inhibited 3',5'-cyclic phosphodiesterase 3A (Homo sapiens) (UniProt Q14432); test: Inhibition of recombinant PDE3A (unknown origin) using FAM-cAMP as substrate at 1xIC50 incubated for 60 mins by fluorescence plate reader analysis
[27] = target: cGMP-inhibited 3',5'-cyclic phosphodiesterase 3B (Homo sapiens) (UniProt Q13370); test: Inhibition of recombinant N-terminal GST-tagged human PDE3B (592-end aa) expressed in Sf9 cells using FAM-cAMP as substrate at 0.1xIC50 incubated for 60 mins by fluorescence plate reader analysis
Homo sapiens [28] = species: Homo sapiens; test: Selectivity for recombinant His-tagged human PDE4B over PDE4C (unknown origin)
PDE4C = PDE4C (Homo sapiens, UniProt Q08493); test: Inhibition of PDE4C (unknown origin) at 100 uM using cAMP as substrate preincubated with enzyme for 15 mins followed by substrate addition and incubated for 1 hr by PDELight HTS cAMP phosphodiesterase Kit based luminometry relative to control; conditions: probe cAMP
Rattus norvegicus = test: Antiarthritic activity in complete Freund's adjuvant-induced Wistar rat arthritis model assessed as reduction in paw volume at 2 mg/kg, ip administered from 11th day to 20th day by vernier caliper analysis; assay type: functional, organism-based
[29] = target: High affinity cAMP-specific and IBMX-insensitive 3',5'-cyclic phosphodiesterase 8A (Homo sapiens) (UniProt O60658); test: Inhibition of recombinant N-terminal GST-tagged full length human PDE8A1 expressed in Sf9 cells using FAM-cAMP as substrate at 0.1xIC50 incubated for 60 mins by fluorescence plate reader analysis
[30] = target: 3',5'-cyclic-AMP phosphodiesterase 7B (Homo sapiens) (UniProt Q9NP56); test: Inhibition of recombinant N-terminal GST tagged and C-terminal His-tagged human PDE7B (109-ens aa) expressed in Sf9 cells using FAM-cAMP as substrate at 1xIC50 incubated for 60 mins by fluorescence plate reader analysis
[31] = target: 3',5'-cyclic-AMP phosphodiesterase 7B (Homo sapiens) (UniProt Q9NP56); test: Inhibition of recombinant N-terminal GST tagged and C-terminal His-tagged human PDE7B (109-ens aa) expressed in Sf9 cells using FAM-cAMP as substrate at 0.1xIC50 incubated for 60 mins by fluorescence plate reader analysis
[32] = target: High affinity cAMP-specific and IBMX-insensitive 3',5'-cyclic phosphodiesterase 8A (Homo sapiens) (UniProt O60658); test: Inhibition of recombinant N-terminal GST-tagged full length human PDE8A1 expressed in Sf9 cells using FAM-cAMP as substrate at 10xIC50 incubated for 60 mins by fluorescence plate reader analysis
[33] = target: High affinity cAMP-specific and IBMX-insensitive 3',5'-cyclic phosphodiesterase 8A (Homo sapiens) (UniProt O60658); test: Inhibition of recombinant N-terminal GST-tagged full length human PDE8A1 expressed in Sf9 cells using FAM-cAMP as substrate at 1xIC50 incubated for 60 mins by fluorescence plate reader analysis
[34] = target: High affinity 3',5'-cyclic-AMP phosphodiesterase 7A (Homo sapiens) (UniProt Q13946); test: Inhibition of recombinant N-terminal GST tagged human PDE7A1 (122-end aa) expressed in Sf9 cells using FAM-cAMP as substrate at 0.1xIC50 incubated for 60 mins by fluorescence plate reader analysis
High affinity 3',5'-cyclic-AMP phosphodiesterase 7A (Homo sapiens), sequence (Q13946 whole entry): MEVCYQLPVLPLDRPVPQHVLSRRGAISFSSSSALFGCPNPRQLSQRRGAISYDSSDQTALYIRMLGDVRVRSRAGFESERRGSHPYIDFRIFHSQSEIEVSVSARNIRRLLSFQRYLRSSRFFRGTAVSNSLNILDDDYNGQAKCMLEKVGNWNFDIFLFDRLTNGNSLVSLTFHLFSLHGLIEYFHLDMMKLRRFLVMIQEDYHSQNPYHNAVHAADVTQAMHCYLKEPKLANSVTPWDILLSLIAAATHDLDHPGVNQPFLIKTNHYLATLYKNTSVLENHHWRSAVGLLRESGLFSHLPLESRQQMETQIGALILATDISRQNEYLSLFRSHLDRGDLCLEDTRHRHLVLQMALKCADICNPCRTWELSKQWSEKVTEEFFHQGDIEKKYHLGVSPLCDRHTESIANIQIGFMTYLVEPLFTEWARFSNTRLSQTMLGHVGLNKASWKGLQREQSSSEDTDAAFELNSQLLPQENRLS

[35] = target: High affinity 3',5'-cyclic-AMP phosphodiesterase 7A (Homo sapiens) (UniProt Q13946); test: Inhibition of recombinant N-terminal GST tagged human PDE7A1 (122-end aa) expressed in Sf9 cells using FAM-cAMP as substrate at 1xIC50 incubated for 60 mins by fluorescence plate reader analysis
[36] = target: High affinity 3',5'-cyclic-AMP phosphodiesterase 7A (Homo sapiens) (UniProt Q13946); test: Inhibition of recombinant N-terminal GST tagged human PDE7A1 (122-end aa) expressed in Sf9 cells using FAM-cAMP as substrate at 10xIC50 incubated for 60 mins by fluorescence plate reader analysis

Cc1cc2c(s1)N(Cc1cc3cc(Br)ccc3n1S(C)(=O)=O)c1ccccc1N=C2N1CCN(C)CC1
IC50 [1]: 1100 nM
Selectivity ratio [2]: > 10

COc1ccc(Cc2nc(O)c3c(C)nc([C@@H](CCCc4ccccc4)[C@@H](C)O)n3n2)cc1OC
inhibition [3]: 55%
inhibition [4]: 7%
inhibition [5]: 52%
inhibition [6]: 86%
inhibition [7]: 86%
inhibition [8]: 16%
inhibition [9]: 52%
inhibition [10]: 18%
inhibition [11]: 87%

CCOc1cc([C@@H](CS(C)(=O)=O)N2C(=O)c3cccc(NC(C)=O)c3C2=O)ccc1OC
inhibition [12]: 57%
inhibition [13]: 8%
inhibition [14]: 89%
inhibition [15]: 91%
inhibition [16]: 58%
inhibition [17]: 13%

CC(C)n1cc(-c2nc3ccccc3nc2Cl)c2cc(Br)ccc21
inhibition [18]: > 75%
IC50 [19]: 9.74 µM

CCCCCCCCc1ccc(CCC(N)(CO)CO)cc1
inhibition (Danio rerio): Active

COC(=O)/C=C/c1c(-c2nc3ccccc3nc2Cl)c2cc(OC)ccc2n1C(C)C
inhibition [18]: > 75%
IC50 [19]: 5.97 µM

CCOC(=O)/C=C/c1c(-c2nc3ccccc3nc2Cl)c2cc(OC)ccc2n1C(C)C
inhibition [18]: > 75%
IC50 [19]: 5.58 µM

C=CCn1cc(-c2ncccc2C#N)c2cc(OC)ccc21
inhibition [18]: > 75%
IC50 [19]: 1.98 µM

COC(=O)/C=C/c1[nH]c2ccccc2c1-c1nc2ccccc2nc1Cl
inhibition [18]: > 75%
IC50 [19]: 3.88 µM

C=CCn1cc(-c2nc3ccccc3nc2Cl)c2ccccc21
IC50 [20]: 22 µM
Ratio IC50 (Homo sapiens [21]): 4.8
inhibition [18]: > 75%
IC50 [19]: 4.67 µM

CN(C(=O)CCCOc1ccc2[nH]c(=O)ccc2c1)C1CCCCC1
inhibition [22]: 61%
inhibition [23]: 94%
inhibition [24]: 85%
inhibition [25]: 9%
inhibition [26]: 39%
inhibition [27]: 17%

CCOC(=O)Cn1cc(-c2nc3ccccc3nc2Cl)c2cc(OC)ccc21
Selectivity ratio (Homo sapiens [28]): > 250
IC50 [20]: 15.2 µM
Ratio IC50 (Homo sapiens [21]): 72
inhibition at 1 h, 100 µM (PDE4C): 20 to 30%
inhibition [18]: > 75%
IC50 [19]: 0.21 µM

CN(Cc1cnc2nc(N)nc(N)c2n1)c1ccc(C(=O)N[C@@H](CCC(=O)O)C(=O)O)cc1
inhibition (Rattus norvegicus): Active

OCCN(CCO)c1nc(N2CCCCC2)c2nc(N(CCO)CCO)nc(N3CCCCC3)c2n1
inhibition [29]: 13%
inhibition [30]: 48%
inhibition [31]: 3%
inhibition [32]: 88%
inhibition [33]: 55%

Cc1ccc([N+](=O)[O-])cc1S(=O)(=O)N(C)C
inhibition [34]: 10%
inhibition [35]: 49%
inhibition [36]: 88%

CCC(C)n1cc(-c2nc3ccccc3nc2Cl)c2cc(OC)ccc21 (stereo unspecified)
IC50 [20]: 4.93 µM
Ratio IC50 (Homo sapiens [21]): 4.75
inhibition [18]: > 75%
IC50 [19]: 1.04 µM

COc1ccc2c(c1)c(-c1nc3ccccc3nc1Cl)cn2C(C)C
IC50 [20]: 5.02 µM
Ratio IC50 (Homo sapiens [21]): 11.4
inhibition [18]: > 75%
IC50 [19]: 0.44 µM
